PubChem BioAssay AID256 (DTP/NCI, 2004)
“And” between values parts separate entries of the source, which are not always exact repeats. Equal values may be shown once. Inconclusive results and toxic doses are left out. The calls were made as follows: active = survival T/C of 150% or more; inactive = T/C below 125% in these data.

Test system: CD2F1 mice, L1210 leukemia ip, survival T/C
Experiment: NCI In Vivo Anticancer Drug Screen. Data for tumor model L1210 Leukemia (intraperitoneal) in CD2F1 (CDF1) mice
Settings: higher = longer survival
Method in brief: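 Implant tumor; dose compound or vehicle; measure endpoint in both groups; report treated divided by control.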

[1] = endpoint: mean survival time, dose: 100.0 mg/kg/injection, schedule: Q01DX009 (ip), vehicle: Klucel (hydroxypropylcellulose) (HPC)
[2] = endpoint: mean survival time, dose: 100.0 mg/kg/injection, schedule: Q01DX009 (ip), vehicle: saline with Tween-80
[3] = endpoint: mean survival time, dose: 200.0 mg/kg/injection, schedule: Q01DX009 (ip), vehicle: saline with Tween-80
[4] = endpoint: mean survival time, dose: 400.0 mg/kg/injection, schedule: Q01DX009 (ip), vehicle: saline with Tween-80
[5] = endpoint: mean survival time, dose: 100.0 mg/kg/injection, schedule: Q04DX003 (ip), vehicle: saline with Tween-80
[6] = endpoint: mean survival time, dose: 200.0 mg/kg/injection, schedule: Q04DX003 (ip), vehicle: saline with Tween-80
[7] = endpoint: mean survival time, dose: 400.0 mg/kg/injection, schedule: Q04DX003 (ip), vehicle: saline with Tween-80
[8] = endpoint: mean survival time, dose: 100.0 mg/kg/injection, schedule: Q01DX001 (ip), vehicle: saline with Tween-80
[9] = endpoint: mean survival time, dose: 200.0 mg/kg/injection, schedule: Q01DX001 (ip), vehicle: saline with Tween-80
[10] = endpoint: mean survival time, dose: 400.0 mg/kg/injection, schedule: Q01DX001 (ip), vehicle: saline with Tween-80
[11] = endpoint: mean survival time, dose: 50.0 mg/kg/injection, schedule: Q04DX003 (ip), vehicle: saline with Tween-80

Measured: T/C

CC(C)(CO)c1ccc(C(c2ccccc2)c2ccccc2)cc1
inactive: endpoint: mean survival time, dose: 50.0 mg/kg/injection, schedule: Q01DX009 (ip), vehicle: other 96 % of control | endpoint: mean survival time, dose: 100.0 mg/kg/injection, schedule: Q01DX009 (ip), vehicle: other 101 % of control | endpoint: mean survival time, dose: 200.0 mg/kg/injection, schedule: Q01DX009 (ip), vehicle: other 96 % of control

NC(=O)c1cnn2ccn(C3OC(CO)C(O)C3O)c12 (configuration not stated)
inactive: endpoint: median survival time, dose: 9.63 mg/kg/injection, schedule: Q01DX005 (ip), vehicle: water 102 % of control | endpoint: median survival time, dose: 19.25 mg/kg/injection, schedule: Q01DX005 (ip), vehicle: water 94 % of control | endpoint: median survival time, dose: 38.5 mg/kg/injection, schedule: Q01DX005 (ip), vehicle: water 104 % of control | endpoint: median survival time, dose: 77.0 mg/kg/injection, schedule: Q01DX005 (ip), vehicle: water 100 % of control | endpoint: median survival time, dose: 154.0 mg/kg/injection, schedule: Q01DX005 (ip), vehicle: water 93 % of control

O=S(=O)(F)c1cc(Cl)c(O)c(S(=O)(=O)F)c1
inactive: endpoint: mean survival time, dose: 25.0 mg/kg/injection, schedule: Q01DX009 (ip), vehicle: Klucel (hydroxypropylcellulose) (HPC) 97 % of control | endpoint: mean survival time, dose: 50.0 mg/kg/injection, schedule: Q01DX009 (ip), vehicle: Klucel (hydroxypropylcellulose) (HPC) 103 % of control | [1] 101 % of control

Cc1ccc([N+](=O)[O-])cc1NC(=O)NNC(=O)CNC(=O)c1ccc(Cl)cc1
inactive: [2] 88 % of control | [3] 94 % of control | [4] 107 % of control

C=CCCCCCCCCC(=O)NCc1nc2ccccc2[nH]1
inactive: [2] 91 % of control | [3] 96 % of control | [4] 96 % of control

Cc1ccc(NC(=O)Oc2cc(C)c(Cl)cc2C)c([N+](=O)[O-])c1
inactive: [1] 106 % of control | endpoint: mean survival time, dose: 200.0 mg/kg/injection, schedule: Q01DX009 (ip), vehicle: Klucel (hydroxypropylcellulose) (HPC) 95 % of control | endpoint: mean survival time, dose: 400.0 mg/kg/injection, schedule: Q01DX009 (ip), vehicle: Klucel (hydroxypropylcellulose) (HPC) 92 % of control

OCCc1ccccc1
inactive: endpoint: mean survival time, dose: 50.0 mg/kg/injection, schedule: Q03HX024 (ip), vehicle: saline with Tween-80 102 % of control | endpoint: mean survival time, dose: 100.0 mg/kg/injection, schedule: Q03HX024 (ip), vehicle: saline with Tween-80 100 % of control | [5] 96 % of control | endpoint: mean survival time, dose: 125.0 mg/kg/injection, schedule: Q01DX009 (ip), vehicle: saline 105 % of control | endpoint: mean survival time, dose: 200.0 mg/kg/injection, schedule: Q03HX024 (ip), vehicle: saline with Tween-80 100 % of control | [6] 93 % of control | endpoint: mean survival time, dose: 250.0 mg/kg/injection, schedule: Q01DX009 (ip), vehicle: saline 102 % of control | [7] 93 % of control | endpoint: mean survival time, dose: 500.0 mg/kg/injection, schedule: Q01DX001 (ip), vehicle: saline with Tween-80 106 % of control | endpoint: mean survival time, dose: 500.0 mg/kg/injection, schedule: Q01DX009 (ip), vehicle: saline 103 % of control

O=C(/C(Br)=C/c1ccccc1[N+](=O)[O-])c1ccccc1
inactive: [8] 98 % of control | [9] 95 % of control | [10] 98 % of control

O=C1/C(=C\c2ccc(Cl)cc2)SC(=S)N1/N=C/c1ccc(Cl)cc1
inactive: endpoint: mean survival time, dose: 25.0 mg/kg/injection, schedule: Q01DX001 (ip), vehicle: saline with Tween-80 97 % of control | endpoint: mean survival time, dose: 50.0 mg/kg/injection, schedule: Q01DX001 (ip), vehicle: saline with Tween-80 94 % of control | [8] 90 % of control | [9] 87 % of control

C=C1COC(O)(C2OCOC(C3CC(=O)NC(=O)C3)C2O)C1C (configuration not stated)
inactive: endpoint: median survival time, dose: 4.0 micrograms/kg/injection, schedule: Q01DX009 (ip), vehicle: water 103 % of control | endpoint: median survival time, dose: 8.0 micrograms/kg/injection, schedule: Q01DX009 (ip), vehicle: saline 110 % of control | endpoint: median survival time, dose: 8.0 micrograms/kg/injection, schedule: Q01DX009 (ip), vehicle: water 118 % of control and 102 % of control | endpoint: median survival time, dose: 16.0 micrograms/kg/injection, schedule: Q01DX009 (ip), vehicle: saline 116 % of control | endpoint: median survival time, dose: 16.0 micrograms/kg/injection, schedule: Q01DX009 (ip), vehicle: water 116 % of control | endpoint: median survival time, dose: 32.0 micrograms/kg/injection, schedule: Q01DX009 (ip), vehicle: saline 118 % of control

CC(C)(C)SC1C(O)C(CO)OC1n1ccc(Nc2ccccc2)nc1=O (configuration not stated)
inactive: endpoint: median survival time, dose: 12.5 mg/kg/injection, schedule: Q01DX005 (ip), vehicle: saline with Tween-80 99 % of control | endpoint: median survival time, dose: 25.0 mg/kg/injection, schedule: Q01DX005 (ip), vehicle: saline with Tween-80 99 % of control | endpoint: median survival time, dose: 50.0 mg/kg/injection, schedule: Q01DX005 (ip), vehicle: saline with Tween-80 102 % of control | endpoint: median survival time, dose: 100.0 mg/kg/injection, schedule: Q01DX005 (ip), vehicle: saline with Tween-80 104 % of control | endpoint: median survival time, dose: 200.0 mg/kg/injection, schedule: Q01DX005 (ip), vehicle: saline with Tween-80 90 % of control

CCCCCCCC(=O)N1C(=O)CCC1C(=O)O (configuration not stated)
inactive: endpoint: mean survival time, dose: 100.0 mg/kg/injection, schedule: Q01DX001 (ip), vehicle: Klucel (hydroxypropylcellulose) (HPC) 100 % of control | endpoint: mean survival time, dose: 200.0 mg/kg/injection, schedule: Q01DX001 (ip), vehicle: Klucel (hydroxypropylcellulose) (HPC) 100 % of control | endpoint: mean survival time, dose: 400.0 mg/kg/injection, schedule: Q01DX001 (ip), vehicle: Klucel (hydroxypropylcellulose) (HPC) 104 % of control

NC(=O)OCC(O)C(O)C(N)C(=O)NC(C(=O)O)C1OC(n2ccc(=O)[nH]c2=O)C(O)C1O (configuration not stated)
inactive: endpoint: mean survival time, dose: 12.5 mg/kg/injection, schedule: Q01DX005 (ip), vehicle: water 96 % of control | endpoint: mean survival time, dose: 25.0 mg/kg/injection, schedule: Q01DX005 (ip), vehicle: water 103 % of control | endpoint: mean survival time, dose: 50.0 mg/kg/injection, schedule: Q01DX005 (ip), vehicle: water 98 % of control | endpoint: mean survival time, dose: 100.0 mg/kg/injection, schedule: Q01DX005 (ip), vehicle: water 101 % of control | endpoint: mean survival time, dose: 200.0 mg/kg/injection, schedule: Q01DX005 (ip), vehicle: water 94 % of control

Nc1cc2[nH]c(=O)c3ccccc3c2cc1Br
inactive: endpoint: mean survival time, dose: 100.0 mg/kg/injection, schedule: Q01DX001 (ip), vehicle: carboxymethylcellulose (CMC) 103 % of control | endpoint: mean survival time, dose: 200.0 mg/kg/injection, schedule: Q01DX001 (ip), vehicle: carboxymethylcellulose (CMC) 97 % of control | endpoint: mean survival time, dose: 400.0 mg/kg/injection, schedule: Q01DX001 (ip), vehicle: carboxymethylcellulose (CMC) 100 % of control

Cc1ccc(CCCC(=O)O)c(C)c1
inactive: [5] 104 % of control | [6] 93 % of control | [7] 98 % of control

CCCCCCC(C)OC(=O)CCCc1ccc(N(CCCl)CCCl)cc1 (configuration not stated)
inactive: endpoint: mean survival time, dose: 50.0 mg/kg/injection, schedule: Q01DX009 (ip), vehicle: acetone 104 % of control | endpoint: mean survival time, dose: 100.0 mg/kg/injection, schedule: Q01DX009 (ip), vehicle: acetone 104 % of control | endpoint: mean survival time, dose: 200.0 mg/kg/injection, schedule: Q01DX009 (ip), vehicle: acetone 104 % of control

Oc1ccc(Sc2ccc(O)cc2O)c(O)c1
inactive: endpoint: mean survival time, dose: 100.0 mg/kg/injection, schedule: Q04DX003 (ip), vehicle: saline 101 % of control | endpoint: mean survival time, dose: 200.0 mg/kg/injection, schedule: Q04DX003 (ip), vehicle: saline 103 % of control | endpoint: mean survival time, dose: 400.0 mg/kg/injection, schedule: Q04DX003 (ip), vehicle: saline 93 % of control

COC(=O)CCC(NC(=O)c1cccc(N(C)C=O)c1)C(=O)OC (configuration not stated)
inactive: [8] 104 % of control | [5] 100 % of control | [9] 115 % of control | [6] 100 % of control | [10] 104 % of control | [7] 96 % of control

[O-][n+]1cc(-c2ccccc2)cc2ccccc21
inactive: [11] 97 % of control | [5] 97 % of control

CC(C)N(C(=S)S)C(C)C
inactive: [5] 101 % of control | [6] 100 % of control | [7] 92 % of control

CCC(=O)C(=O)c1ccccc1
inactive: endpoint: mean survival time, dose: 100.0 mg/kg/injection, schedule: Q01DX001 (ip), vehicle: saline 101 % of control | endpoint: mean survival time, dose: 200.0 mg/kg/injection, schedule: Q01DX001 (ip), vehicle: saline 98 % of control | endpoint: mean survival time, dose: 400.0 mg/kg/injection, schedule: Q01DX001 (ip), vehicle: saline 101 % of control

CN1CC2C3CCC(C3)C2(C)C1O (configuration not stated)
inactive: endpoint: mean survival time, dose: 50.0 mg/kg/injection, schedule: Q04DX002 (ip), vehicle: saline with Tween-80 103 % of control | endpoint: mean survival time, dose: 100.0 mg/kg/injection, schedule: Q04DX002 (ip), vehicle: saline with Tween-80 103 % of control | endpoint: mean survival time, dose: 200.0 mg/kg/injection, schedule: Q04DX002 (ip), vehicle: saline with Tween-80 87 % of control

CC1(C)N=C(N)N=C(N)N1c1ccc(Cl)c(C(F)(F)F)c1
inactive: endpoint: mean survival time, dose: 25.0 mg/kg/injection, schedule: Q04DX003 (ip), vehicle: saline with Tween-80 109 % of control | [11] 124 % of control
